From ChEMBL document CHEMBL5214910, “Rational Design of Dipicolylamine-Containing Carbazole Amphiphiles Combined with Zn2+ as Potent Broad-Spectrum Antibacterial Agents with a Membrane-Disruptive Mechanism” (J Med Chem, 2021)

Key:
Pseudomonas aeruginosa = test: Antibacterial activity Pseudomonas aeruginosa ATCC 9027 assessed as inhibition of bacterial growth incubated for 24 hrs in the presence of 6.25 ug/mL Zn2+ by Muller hinton broth based dilution assay; type: functional
Escherichia coli = test: Antibacterial activity against Escherichia coli ATCC 25922 assessed as log reduction in bacterial count at 4 times of MIC incubated for 1 hrs in the presence of 12.5 ug/ml Zn2+ by Muller hinton agar based time kill assay; type: functional

CC(C)=CCn1c2ccccc2c2c(OCC(O)CN(Cc3ccccn3)Cc3ccccn3)cccc21 (configuration not stated)
MIC (Pseudomonas aeruginosa): 3.12 µg/mL | log(activity) (Escherichia coli): 2.91
